Measurements reported in patent publication US8840924B2, “Compositions and methods of making rapidly dissolving ionically masked formulations” (NEOS Therapeutics, LP, priority 2005, dated 2014).

Tests used:
[1] = Dissolution profile of capsule (release of pseudoephedrine and chlorpheniramine); type: physicochemical; details: Table 4, capsules
Text: In addition the composition may be in the form of a capsule. Below is a list of actual assay results for one example of the present invention when in the form of a capsule.

[2] = Dissolution profile of chewable tablet (release of pseudoephedrine and chlorpheniramine); type: physicochemical
Text: Below is a list of actual assay results for one example of the present invention with the composition listed as formula II above.
Below is a list of assay results for one example of the present invention with the composition listed as formula II above.

[3] = Table 1, chewable tablet, composition formula II
[4] = Table 2, after Example III, text says formula II
[5] = Table 3, composition listed as formula II

SMILES | release, 90 min (%) [1] [%] | release, 3 Hr (%) [1] [%] | release, 6 Hr (%) [1] [%] | release, 12 Hr (%) [1] [%] | release, 30 min (%) [2, 3] [%] | release, 30 min (%) ([2]; Table 1, chewable tablet, composition formula II, listed as pseudoephedrine) | release, 1 Hr (%) [2, 3] [%] | release, 3 Hr (%) [2, 3] [%] | release, 8 Hr (%) [2, 3] [%] | release, 30 min (%) [2, 4] [%] | release, 1 Hr (%) [2, 4] [%] | release, 3 Hr (%) [2, 4] [%] | release, 8 Hr (%) [2, 4] [%] | release, 30 min (%) [2, 5] [%] | release, 1 Hr (%) [2, 5] [%] | release, 3 Hr (%) [2, 5] [%] | release, 8 Hr (%) [2, 5] [%]
CN[C@@H](C)[C@@H](O)c1ccccc1 [Pseudoephedrine] | 34.8 | 54.1 | 75.4 | 91.7 | 27.6 | 26.7 | 37.8 | 59.4 | 82.0 | 27.0 | 36.3 | 53.0 | 78.4 | 29.2 | 39.7 | 61.2 | 85.2
CN(C)CCC(c1ccc(Cl)cc1)c1ccccn1 (stereo not drawn) [Chlorpheniramine] | 21.9 | 35.4 | 55.2 | 78.6 | 35.1 |  | 42.7 | 51.6 | 60.8 | 36.4 | 42.1 | 51.0 | 60.7 | 40.1 | 45.1 | 53.3 | 62.1
